Measured values from US20240287074A1, “SALTS AND CRYSTALS” (Kinoxis Therapeutics Pty Ltd, priority 2020, published 2024).
Where a name gives a salt, the structure may show the parent alone. Read-outs that look alike come from different tables or passages of the source. Marks after values point to notes of the source that are not given here.

Experiments:
[1] = Dynamic / gravimetric vapour sorption (DVS/GVS) hygroscopicity; assay type: physicochemical
Description: Approximately, 10-20 mg of sample was placed into a mesh vapour sorption balance pan and loaded into a DVS Intrinsic dynamic vapour sorption balance by Surface Measurement Systems. The sample was subjected to a ramping profile from 40-90% relative humidity (RH) at 10% increments, maintaining the sample at each step until a stable weight had been achieved (dm/dt 0.004%, minimum step length 30 minutes, maximum step length 500 minutes) at 25° C. After completion of the sorption cycle, the sample was dried using the same procedure to 0% RH and then a second sorption cycle back to 40% RH. Two cycles were performed. The weight change during the sorption/desorption cycles were plotted, allowing for the hygroscopic nature of the sample to be determined. XRPD analysis was then carried out on any solid retained.
Approximately 10-20 mg of sample was placed into a mesh vapour sorption balance pan and loaded into an IGASorp Moisture Sorption Analyser balance by Hiden Analytical. The sample was subjected to a ramping profile from 40-90% relative humidity (RH) at 10% increments, maintaining the sample at each step until a stable weight had been achieved (98% step completion, minimum step length 30 minutes, maximum step length 60 minutes) at 25° C. After completion of the sorption cycle, the sample was dried using the same procedure to 0% RH, and finally taken back to the starting point of 40% RH. Two cycles were performed. The weight change during the sorption/desorption cycles were plotted, allowing for the hygroscopic nature of the sample to be determined.

[2] = Oral pharmacokinetics in rats; assay type: in vivo; settings: for Plasma AUC0-inf/Dose / Plasma Cmax/Dose: dose-normalised; for Plasma AUC0-inf/Dose / Plasma Cmax/Dose / BA % / % Dose in urine: male Sprague Dawley rats; for Plasma AUC0-inf/Dose / Plasma Cmax/Dose / % Dose in urine: dihydrochloride; for BA % / % Dose in urine / Cmax / half-life / AUC(0-inf) / Tmax: 5 mg/kg target dose (freebase equivalent), 5 mg/kg; for BA % / Cmax / half-life / AUC(0-inf) / Tmax: mean ± SD; for BA %: n = 3, dihydrochloride; for % Dose in urine: urine up to 24 h; for Cmax / half-life / AUC(0-inf) / Tmax: male, Sprague Dawley, rat, plasma, po; for Cmax: n = 3; for half-life: n = 3, read-out: Apparent t1/2 (converted); for AUC(0-inf): n = 3, read-out: Plasma AUC0-inf; for Tmax: n = 3, read-out: Tmax
Description: N=3 rats were run in each of the four conditions: • (1) Di-HCL salt in saline • (2) Di-HCL salt in methocel • (3) Phosphate form 1 in saline • (4) Phosphate form 1 in methocel
On the day of dosing the solid compounds were dissolved in either Saline (0.9%) or 0.5% hydroxypropyl methylcellulose (Methocel E3 Premium LV) in Milli-Q water. The formulations were then thoroughly vortexed to produce colourless solutions.
Overnight-fasted rats with adlibitum access to water were administered their dose of the various forms of the compound of the invention via oral gavage (PO) at a dose volume of 3 ml/kg and a dose of 5 mg/kg freebase equivalent. Food access was re-instated 4 hours (h) post-dose. Samples of arterial blood were collected up to 24 h post-dose. After collection, samples were centrifuged, plasma was removed and stored frozen at −80° C. before being analysed by LC-MS. Urine samples were collected at pre, 0-4 h, 4-7 h and 7-24 h post-dose and were analysed by LC-MS following extraction.

[3] = test system: C57BL/6 mouse model of opioid withdrawal; assay: Naloxone precipitated oxycodone withdrawal-induced jumping; assay type: in vivo; settings: 7.3 mg/kg FBE i.p., C57BL/6 mice, 30 min session, vs OXY_VEH
Description: Two cohorts of adult male C57BL/6 mice were run assessing the effects of 7.3 mg/kg freebase equivalent (FBE) IP of the compound of the invention in the dihydrochloride salt form (CMPD1-2HCL) and the phosphate form 1 (CMPD1-PO4) on naloxone precipitated withdrawal-induced jumping.
The first cohort of mice (N=30) were split into the following conditions: • (1) Vehicle, 0 mg/kg (n=10); • (2) oxycodone, 0 mg/kg compound of the invention FBE in 2HCL salt form (n=10); • (3) oxycodone, 7.3 mg/kg compound of the invention FBE in 2HCL salt form (n=10).
The second cohort of mice (N=24) were split into the following conditions: • (1) Vehicle, 0 mg/kg (n=8); • (2) oxycodone, 0 mg/kg compound of the invention FBE in PO4 salt form (n=8); • (3) oxycodone, 7.3 mg/kg compound of the invention FBE in PO4 salt form (n=8).
Mice in the oxycodone conditions received i.p. injections of oxycodone for 5 days according to the schedule and doses set out in Table 8. The morning and afternoon doses were separated by 7 h. Mice in the vehicle condition received injections of vehicle saline instead of oxycodone. […]
Testing involved placing mice individually into a 20 (I)×20 (w)×30 (h) cm arena for 30 min. […] Number of jumps were scored from the videos by an experienced experimenter blind to conditions.
Data were analysed by SPSS using oneway ANOVA and planned contrasts.

[4] = target: T1, orthosteric oxytocin receptor binding sites (Homo sapiens, UniProt P30559); settings: cited from earlier work
T1 sequence (P30559 1-389): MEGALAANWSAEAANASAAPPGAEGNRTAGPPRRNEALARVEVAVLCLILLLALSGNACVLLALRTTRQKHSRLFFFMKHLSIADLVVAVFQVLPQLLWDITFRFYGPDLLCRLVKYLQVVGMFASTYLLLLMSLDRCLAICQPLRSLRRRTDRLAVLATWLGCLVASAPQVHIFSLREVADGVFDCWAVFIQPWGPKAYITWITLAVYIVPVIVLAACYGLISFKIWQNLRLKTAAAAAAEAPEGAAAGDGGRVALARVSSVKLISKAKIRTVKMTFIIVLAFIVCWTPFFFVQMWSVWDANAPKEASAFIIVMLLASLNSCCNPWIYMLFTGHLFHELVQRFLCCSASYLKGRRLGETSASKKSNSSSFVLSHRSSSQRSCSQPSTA

[5] = test system: orthosteric vasopressin receptor binding sites; settings: cited from earlier work

relative humidity above which form change is indicated by DVS [1]: above 60 % RH
relative humidity below which the weight change is reversible (DVS) [1]: below 30 % RH
hygroscopicity ([1]; DVS, 25° C., dihydrochloride): high hygroscopicity
Plasma AUC0-inf/Dose ([2]; Methocel): 0.91 ± 0.12 (μg*h/mL)/(mg/kg)
Plasma Cmax/Dose ([2]; Methocel): 0.40 ± 0.02 (μg/mL)/(mg/kg)
Plasma AUC0-inf/Dose ([2]; Saline): 1.14 ± 0.12 (μg*h/mL)/(mg/kg)
Plasma Cmax/Dose ([2]; Saline): 0.61 ± 0.29 (μg/mL)/(mg/kg)
BA % ([2]; Methocel): 98.9 ± 13^b %
% Dose in urine ([2]; Methocel): 0.224 ± 0.14%
BA % ([2]; Saline): 124 ± 13%
% Dose in urine ([2]; Saline): 0.184 ± 0.059%
Cmax ([2]; Methocel): 1800 ± 110 ng/mL
half-life ([2]; Methocel): 40.8 ± 12 min
AUC(0-inf) ([2]; Methocel): 4100 ± 520 ng·h/mL
Tmax ([2]; Methocel): 19.8 ± 6 min
Cmax ([2]; Saline): 2930 ± 1360 ng/mL
half-life ([2]; Saline): 41.4 ± 6 min
AUC(0-inf) ([2]; Saline): 5460 ± 540 ng·h/mL
Tmax ([2]; Saline): 45 ± 24 min
Structure (SMILES): Cn1ncc2c1Nc1ccccc1NC2 [Di-hydrochloride salt, 1-Methyl-1,4,5,10-tetrahydropyrazolo[3,4-b][1,5]benzodiazepine dihydrochloride]
oxycodone withdrawal-induced jumping [3]: significantly inhibited
binding affinity for the orthosteric oxytocin receptor binding sites [4]: without demonstrating significant binding affinity
binding affinity for the orthosteric vasopressin receptor binding sites [5]: without demonstrating significant binding affinity
